Data from publication PMC4639751, “Development of 1-N-^11C-Methyl-L- and -D-Tryptophan for pharmacokinetic imaging of the immune checkpoint inhibitor 1-Methyl-Tryptophan” (Scientific Reports, 2015).

Experiments:
[1] = Ex vivo biodistribution studies; settings: SD rats, mean ± SEM, n = 4
Description: Major organs and tissues (blood, heart, lung, liver, pancreas, spleen, kidney, intestine, muscle, and brain), were promptly excised, harvested, and weighed. Radioactivity was counted using a γ-counter and expressed as a percentage of the injected dose per gram of wet tissue (%ID/g). All radioactivity measurements were corrected for decay.

[2] = PET, rats, 60 min after injection
Protocol: Emission scans were acquired in three-dimensional list mode with an energy window of 350–650 keV under isoflurane anesthesia, from 0 to 60 min after radioprobe administration. All list-mode acquisition data were sorted into three-dimensional sinograms, which were then Fourier-rebinned into two-dimensional sonograms (frames × min: 4 × 1, 8 × 2, 8 × 5), and corrections for scanner dead time, randoms, and decay of the injected radioprobe. Dynamic images were reconstructed with filtered back-projection using a Hanning filter and a Nyquist cut-off of 0.5 cycles/pixel. Immediately after completion of PET scans, contrast-enhanced CT scans were performed in the rats by using the small-animal CT system (R_mCT2; Rigaku, Tokyo) after injection of 1 mL of non-ionic contrast medium (Iopamiron 370, Bayer, Osaka). The scan conditions included radiation parameters of 200 μA and 90 kV, FOV of 60 mm, and acquisition time of 34 s. CT images were collected, reconstructed, and observed using I-View-R software (Rigaku, The Woodlands, TX). Averaged CT attenuation images and dynamic PET images were reconstructed and fused using the Siemens Inveon Research Workplace (IRW) 4.0 software.
Regions of interest (ROI) in major organs and tissues were drawn in the PET/CT fusion images by manual outlining the organs and tissues in the CT images throughout the image slices by using IRW 4.0 software. The average radioactivity concentration was obtained from mean pixel values in the ROI volume. Regional uptake of radioactivity was decay-corrected to the injection time and expressed as the standardized uptake value (SUV), normalized for injected radioactivity and body weight. SUV was calculated as SUV = (radioactivity per cubic centimeter tissue/injected radioactivity) × body weight in grams. TACs of the radioprobes in individual organ and tissue were determined. Values of area under time-activity curves (AUC2–60 min, SUV × min) were calculated from 2 to 60 min post-injection to minimize the early perfusion effects.

[3] = set-up: method as in PMID 17234791; settings: compared with the other isomer; cited from earlier work
[4] = In vitro stability assay in rat plasma; format: in vitro ADME; settings: 37 °C, 90 min incubation, HPLC analysis
Protocol: To determine the in vitro property of the two newly-developed radioprobes, we performed plasma stability studies by HPLC analysis at 37 °C for 90 min. […] More than 95% of ^11C-L-1Mtrp and ^11C-D-1Mtrp remained intact and no detectable metabolites were found at least 90 min after plasma incubation in vitro.
^11C-L-1MTrp and ^11C-D-1MTrp (70–74 MBq, 0.4−0.6 nmol) was dissolved in 2 mL of freshly isolated rat plasma and incubated at 37 °C for 90 min. After 0, 30, 60 and 90 min, an aliquot of 300 μL incubated mixture was taken, proteins in plasma were precipitated with equal volumes of 1 M HClO4 solution, followed by centrifugation at 15000 rpm for 2 min at 4 °C. The supernatant was collected and analyzed by HPLC (Capcell Pack UG80 column, 4.6 mm i.d. × 250 mm) with […] phosphate buffer/CH3CN (8.5/1.5, v/v) at a flow rate of 1 mL/min.

[5] = Ex vivo metabolite studies; format: in vivo; settings: SD rats; for Ex vivo metabolite analysis, % of tailored L- and D-1MTrp entity in Brain / Ex vivo metabolite analysis, % of tailored L- and D-1MTrp entity in Pancreas / Ex vivo metabolite analysis, % of tailored L- and D-1MTrp entity in Plasma: HPLC, mean ± SEM, n = 4
Protocol: To validate the derivation of radioactivity into the relevant organs and tissues, we assessed the metabolites of both radiolabelled isomers in the blood, brain, and pancreas of rats. […] Few radioactive metabolites were detected in these three tissues at 15 and 60 min after ^11C-L-1MTrp and ^11C-D-1MTrp injection.
SD rats were injected with ^11C-L-1MTrp or ^11C-D-1MTrp (70–74 MBq, 0.4–0.6 nmol) via a lateral tail vein. The animals were sacrificed by cervical dislocation at 15 and 60 min after the injection. Blood was collected and centrifuged at 15000 rpm for 2 min at 4 °C to separate the plasma. Brain and pancreas were rapidly removed, then homogenized in equal volumes of 1 M HClO4 solution with a Silent Crusher S homogenizer (Heidolph Instruments). Plasma and homogenates of brain and pancreas from rats were deproteinized and then analyzed by HPLC as described in the stability assay in vitro.

## Cn1cc(C[C@@H](N)C(=O)O)c2ccccc21 [D-1MTrp, 1-Methyl-D-tryptophan, reference compound]
[1]; 60 min after injection
  Biodistribution, radioactivity in Kidney: 1.16 %ID/g tissue
[2]; mean ± SEM, four rats
  SUV in the kidney: 1.79
[3]
  Antitumor activity in in vivo studies: superior antitumor activity

## [11CH3]n1cc(C[C@H](N)C(=O)O)c2ccccc21 [^11C-L-1MTrp, 1-N-^11C-methyl-L-tryptophan]
[1]; 1 min after injection
  Biodistribution, radioactivity in Blood: 1.34 ± 0.03 %ID/g tissue
  Biodistribution, radioactivity in Brain: 0.14 ± 0.00 %ID/g tissue
  Biodistribution, radioactivity in Heart: 1.13 ± 0.01 %ID/g tissue
  Biodistribution, radioactivity in Intestine: 1.27 ± 0.05 %ID/g tissue
  Biodistribution, radioactivity in Kidney: 2.60 ± 0.02 %ID/g tissue
  Biodistribution, radioactivity in Liver: 1.51 ± 0.03 %ID/g tissue
  Biodistribution, radioactivity in Lung: 0.98 ± 0.02 %ID/g tissue
  Biodistribution, radioactivity in Muscle: 0.18 ± 0.02 %ID/g tissue
  Biodistribution, radioactivity in Pancreas: 2.95 ± 0.23 %ID/g tissue
  Biodistribution, radioactivity in Spleen: 0.98 ± 0.05 %ID/g tissue
[1]; 5 min after injection
  Biodistribution, radioactivity in Blood: 0.65 ± 0.01 %ID/g tissue
  Biodistribution, radioactivity in Brain: 0.20 ± 0.01 %ID/g tissue
  Biodistribution, radioactivity in Heart: 0.64 ± 0.01 %ID/g tissue
  Biodistribution, radioactivity in Intestine: 0.68 ± 0.01 %ID/g tissue
  Biodistribution, radioactivity in Kidney: 1.64 ± 0.03 %ID/g tissue
  Biodistribution, radioactivity in Liver: 0.73 ± 0.01 %ID/g tissue
  Biodistribution, radioactivity in Lung: 0.62 ± 0.01 %ID/g tissue
  Biodistribution, radioactivity in Muscle: 0.46 ± 0.01 %ID/g tissue
  Biodistribution, radioactivity in Spleen: 0.61 ± 0.00 %ID/g tissue
[1]; 15 min after injection
  Biodistribution, radioactivity in Blood: 0.54 ± 0.02 %ID/g tissue
  Biodistribution, radioactivity in Brain: 0.27 ± 0.02 %ID/g tissue
  Biodistribution, radioactivity in Heart: 0.54 ± 0.02 %ID/g tissue
  Biodistribution, radioactivity in Intestine: 0.53 ± 0.02 %ID/g tissue
  Biodistribution, radioactivity in Kidney: 1.11 ± 0.06 %ID/g tissue
  Biodistribution, radioactivity in Liver: 0.61 ± 0.03 %ID/g tissue
  Biodistribution, radioactivity in Lung: 0.50 ± 0.02 %ID/g tissue
  Biodistribution, radioactivity in Muscle: 0.46 ± 0.02 %ID/g tissue
  Biodistribution, radioactivity in Pancreas: 2.65 ± 0.16 %ID/g tissue
  Biodistribution, radioactivity in Spleen: 0.55 ± 0.02 %ID/g tissue
[1]; 30 min after injection
  Biodistribution, radioactivity in Blood: 0.50 ± 0.01 %ID/g tissue
  Biodistribution, radioactivity in Brain: 0.30 ± 0.02 %ID/g tissue
  Biodistribution, radioactivity in Heart: 0.49 ± 0.01 %ID/g tissue
  Biodistribution, radioactivity in Intestine: 0.51 ± 0.00 %ID/g tissue
  Biodistribution, radioactivity in Kidney: 0.86 ± 0.03 %ID/g tissue
  Biodistribution, radioactivity in Liver: 0.55 ± 0.01 %ID/g tissue
  Biodistribution, radioactivity in Lung: 0.45 ± 0.01 %ID/g tissue
  Biodistribution, radioactivity in Muscle: 0.45 ± 0.01 %ID/g tissue
  Biodistribution, radioactivity in Pancreas: 2.70 ± 0.17 %ID/g tissue
  Biodistribution, radioactivity in Spleen: 0.51 ± 0.01 %ID/g tissue
[1]; 60 min after injection
  Biodistribution, radioactivity in Blood: 0.50 ± 0.02 %ID/g tissue
  Biodistribution, radioactivity in Brain: 0.31 ± 0.01 %ID/g tissue
  Biodistribution, radioactivity in Heart: 0.47 ± 0.02 %ID/g tissue
  Biodistribution, radioactivity in Intestine: 0.46 ± 0.02 %ID/g tissue
  Biodistribution, radioactivity in Kidney: 0.74 ± 0.04 %ID/g tissue
  Biodistribution, radioactivity in Liver: 0.54 ± 0.02 %ID/g tissue
  Biodistribution, radioactivity in Lung: 0.43 ± 0.02 %ID/g tissue
  Biodistribution, radioactivity in Muscle: 0.45 ± 0.02 %ID/g tissue
  Biodistribution, radioactivity in Pancreas: 2.27 ± 0.05 %ID/g tissue
  Biodistribution, radioactivity in Spleen: 0.48 ± 0.01 %ID/g tissue
[4]
  Fraction remaining intact in rat plasma: More than 95%
[2]; mean ± SEM, four rats
  SUV in the kidney: 0.94 ± 0.03
  SUV in the pancreas: 2.28 ± 0.28
[2]; span over these organs
  SUV in the liver, spleen, heart, blood, muscle, lung, brain and intestine: 0.43 ~ 0.70
[5]; 15 and 60 min after injection
  Radioactivity in the brain, pancreas, and blood associated with L- and D-1MTrp: more than 94%
[5]; 15 min after injection
  Ex vivo metabolite analysis, % of tailored L- and D-1MTrp entity in Brain: 98.38 ± 0.34%
  Ex vivo metabolite analysis, % of tailored L- and D-1MTrp entity in Pancreas: 94.73 ± 1.64%
  Ex vivo metabolite analysis, % of tailored L- and D-1MTrp entity in Plasma: 97.67 ± 0.18%
[5]; 60 min after injection
  Ex vivo metabolite analysis, % of tailored L- and D-1MTrp entity in Brain: 98.93 ± 0.51%
  Ex vivo metabolite analysis, % of tailored L- and D-1MTrp entity in Pancreas: 95.88 ± 0.64%
  Ex vivo metabolite analysis, % of tailored L- and D-1MTrp entity in Plasma: 98.44 ± 0.13%
